Several values for one entry are separate records, joined by “and”; a condition that tells them apart may be missing. Identical values can stand only once. Like-named read-outs stand apart in the source and are kept apart here. Where a SMILES comes first, the peptide text is derived from it. Bridges are numbered along the chain shown (N, C = ends). [ ]: non-standard residue; d: D form. The star is where a group is joined. Hexanoyl(3R-OH,5-Me) = CC(C)C[C@@H](O)CC(=O)*; dNMeF = CN[C@H](Cc1ccccc1)C(=O)O; dOrn = NCCC[C@@H](N)C(=O)O
How the values were obtained:
[1] = On-bead menaquinone complexation assay (fluorescence of 2H); type: binding; conditions: single library bead (hit beads >1000 a.u.), average of three readings
Protocol: Next, the feasibility of the on-bead complexation assay was assessed using bead-linked lysocin E 30 and MK-4 (2). Our initial assay based on the finding that 1 and 2 form a red precipitate upon complexation (Supplementary Fig. 2) was not robust, because the magnitude of the red color was not proportional to the amount of captured 2 (Fig. 2b, c). We therefore developed a fluorescence-based method for quantifying 2 by reducing its naphthoquinone moiety to fluorescent hydroquinone 2H. One bead of 30 was incubated with 2 in MeOH, washed by MeOH in a microplate well, and then the bead-bound 2 was eluted under more forcing hydrophobic conditions (n-BuOH at 50 °C). The eluate containing 2 was treated with NaBH4 in n-BuOH to produce 2H[46]. The fluorescence intensity of 2H was evaluated to determine the quantity of 2 bound to one bead of 30. The method was found with a small margin of error (1026 ± 64 a.u.), indicating its high accuracy (Fig. 2a and Supplementary Fig. 3). Importantly, the structure of 1 remained intact during the complexation assay as judged by UHPLC and mass analyses.
General procedures for menaquinone complexation assay. To the bead-linked lysocin E analogues in LibraTube was added a solution of menaquinone-4 (2) in MeOH (10 mM, 1.0 mL/1000 beads). The mixture was incubated at room temperature for 12 h. A suspension of the beads in MeOH (200 beads/200 µL) was transferred to a 2.0 mL microtube.
Each bead in the microtube was transferred to each well of a 96-well filtration plate (278011, Thermo Fisher Scientific, 1 bead/well) with the solution of 2 (20 µL/bead) using a micropipette. To each well was added MeOH (400 µL), and the beads was filtered by gravity flow (× 3). The beads in the plate were dried under vacuum for 0.5–1 h. The dried beads were transferred to a 96-well PCR plate (652270, Greiner bio-one, 1 bead/well) with MeOH (20 µL/well) using a micropipette. The solution was removed under a stream of Ar at 40 °C to give the 2-bound bead-linked peptides.
To the 2-bound bead-linked peptides in the plate was added n-BuOH (30 µL/well) at room temperature .
The suspension was incubated at 50 °C for 1 h. The resultant mixture in the plate was centrifuged at 3500 × g at room temperature for 10 sec . The supernatant in each well was transferred to the corresponding well of a black polystyrene flat -bottom 96-well plate (655086, Greiner bio-one). The solution was concentrated under a stream of Ar at 40 °C to give the eluted 2.
To the above eluted 2 in the plate was added n-BuOH (25 µL/well) at room temperature. The plate was vortexed at room temperature for 10 min. To the resultant solution was added a solution of NaBH4 in n-BuOH (1.0 mM, 25 µL/well). The plate was vortexed at room temperature for 10 min. The fluorescence of menahydroquinone (2H, Ex. 250 nm/Em. 430 nm) of each well was measured at room temperature every 3 min (0, 3, and 6 min) on Gemini EM microplate reader (Molecular Devices) . The three fluorescence intensities of each bead were averaged and plotted against the bead number.
Evaluation of menaquinone complexation activities of the selected bead-linked peptides. Bead-linked peptides 30, BLP1, and BLP2 were synthesized according to the above described procedures (loading rate:
0.222 mmol/g). The bead-linked peptides were subjected to the MK complexation assay described above.
The obtained fluorescent intensities of 2H (arbitrary unit) were 1026 ± 64 for 30, 396 ± 27 for BLP1, 72.9 ± 2.0 for BLP2, and 41.6 ± 0.1 for background adsorption (no bead), respectively (Supplementary Figure 3).

[2] = Liposomal membrane disruption assay (carboxyfluorescein LUVs); type: biochemical
Protocol: Preparation of LUVs consisting of PC/PG/MK-4 or PC/PG/UQ-10. To a solution of egg yolk phosphatidylcholine (9.48 mg, 12.4 µmol) and egg yolk phosphatidylglycerol (9.66 mg, 12.4 µmol) in CHCl3 (0.208 mL) was added a solution of MK-4 (2) or UQ-10 (3) (0.313 µmol) in CHCl3 (21.8 µL). The solution was concentrated, and dried under vacuum to for m a lipid thin film. The thin film was hydrated and suspended in carboxyfluorescein-containing buffer solution (0.500 mL, 5 mM HEPES, 20 mM carboxyfluorescein , pH 7.5) by vortexing and sonication. After five-times freeze-thaw cycles, the lipid suspension was extruded 19 times through a polycarbonate filter with 0.40 µm of pore siz e in the diameter.
The external carboxyfluorescein -containing buffer was replaced with a carboxyfluorescein -free buffer solution (20 mM HEPES, 1 mM EDTA, pH 7.5) through size exclusion chromatography using disposable PD -10 column. Concentration of egg yolk phosphatidylcholine was determined by using Phospholipid C -Test Wako.
The final concentration of egg yolk phosphatidylcholine was adjusted to 4.0 µM with the carboxyfluorescein -free buffer solution, and the solution was used for membrane disruption ass ay.
Membrane disruption assay. Peptides 1, A1–A22, B1–B5, and C1–C5 were diluted with MeOH/H2O (4/6) to various concentrations as 5-fold serial dilutions. The solution of peptides (2 µL/well) and the carboxyfluorescein-encapsulated LUV suspension (200 µL/well) were mixed in black polystyrene flat-bottom 96-well plates. The final concentration of peptides ranged from 2970 nM to 0.950 nM. The plates were vortexed at room temperature for 30 min, and then fluorescence of carboxyfluorescein (Ex. 490 nm/Em. 517 nm) of each well was measured at room temperature on Gemini EM microplate reader. Trion X-100/H2O (5/95, 2 µL), MeOH/H2O (4/6, 2 µL), and the LUV suspension were mixed in each plate to determine 100% lysis. MeOH/H2O (4/6, 2 µL) and the LUV suspension were mixed in each plate to determine 0% lysis.
The membrane disruption activities of tested peptides (I) were normalized against 100% lysis by Triton X -100 […]
(Imax) and 0% lysis by MeOH/H2O (4/6) (I0) as following, where Ix is the fluorescence intensity (Supplementary Equation 2).
I = 100 × (Ix – I0) / (Imax – I0) (2)
The membrane-disrupting activities were evaluated as half-maximal response (EC50, nM) values by means of three replicates. Sigmoidal curve fittings were performed on R2 with drc package (Supplementary Figs S7–S9).3 Two-parameter logistic model was applied for the fitting.

[3] = 30 min, room temperature, mean ± SD of three independent experiments, read-out: EC50 PC/PG/3
[4] = PC/PG/3 LUVs, 1st experiment, read-out: EC50 PC/PG/3 1st
[5] = PC/PG/3 LUVs, 2nd experiment, read-out: EC50 PC/PG/3 2nd
[6] = PC/PG/3 LUVs, 3rd experiment, read-out: EC50 PC/PG/3 3rd

SMILES | fluorescence intensity of 2H [1] [a.u.] | EC50 [2, 3] [nM] | EC50 [2, 4] [nM] | EC50 [2, 5] [nM] | EC50 [2, 6] [nM] | fluorescence intensity of 2H ([1]; listed as KLVI) | fluorescence intensity of 2H ([1]; listed as YLOI)
CC[C@H](C)[C@@H]1NC(=O)[C@@H](Cc2c[nH]c3ccccc23)NC(=O)[C@@H](CCC(N)=O)NC(=O)[C@H](CCC(=O)O)NC(=O)[C@@H](CCCNC(=N)N)NC(=O)[C@H](CC(C)C)NC(=O)[C@@H](Cc2ccccc2)N(C)C(=O)CNC(=O)[C@H](CO)NC(=O)[C@@H](CCCNC(=N)N)NC(=O)[C@@H](NC(=O)C[C@H](O)CC(C)C)[C@@H](C)OC(=O)[C@H]([C@@H](C)O)NC1=O [Peptide 1, Lysocin E] ({Hexanoyl(3R-OH,5-Me)}-T[dR]SG[dNMeF]L[dR]E[dQ][dW]IT; ester 1-C) | 1369.78 | 92 | 58 | 167 | 51.6 |  | 
CC[C@H](C)[C@@H]1NC(=O)[C@@H](Cc2c[nH]c3ccccc23)NC(=O)[C@@H](CCC(N)=O)NC(=O)[C@H](CCC(=O)O)NC(=O)[C@@H](CCCNC(=N)N)NC(=O)[C@H](CC(C)C)NC(=O)[C@@H](Cc2ccccc2)N(C)C(=O)CNC(=O)[C@H](C)NC(=O)[C@@H](CCCNC(=N)N)NC(=O)[C@@H](NC(=O)C[C@H](O)CC(C)C)[C@@H](C)OC(=O)[C@H]([C@@H](C)O)NC1=O [Peptide A1] ({Hexanoyl(3R-OH,5-Me)}-T[dR]AG[dNMeF]L[dR]E[dQ][dW]IT; ester 1-C) | 1237.12 | 92.7 ± 31.3 | 128 | 82.1 | 68.1 |  | 
CC[C@H](C)[C@@H]1NC(=O)[C@@H](Cc2c[nH]c3ccccc23)NC(=O)[C@@H](C(C)C)NC(=O)[C@H](CCC(=O)O)NC(=O)[C@@H](CCCNC(=N)N)NC(=O)[C@H](CC(C)C)NC(=O)[C@@H](Cc2ccccc2)N(C)C(=O)CNC(=O)[C@H](C)NC(=O)[C@@H](CCCNC(=N)N)NC(=O)[C@@H](NC(=O)C[C@H](O)CC(C)C)[C@@H](C)OC(=O)[C@H]([C@@H](C)O)NC1=O [Peptide A2] ({Hexanoyl(3R-OH,5-Me)}-T[dR]AG[dNMeF]L[dR]E[dV][dW]IT; ester 1-C) | 1152.24 |  | 89.7 | 133 | 57.5 |  | 
CC[C@H](C)[C@@H]1NC(=O)[C@@H](Cc2c[nH]c3ccccc23)NC(=O)[C@@H](C(C)C)NC(=O)[C@H](CCC(=O)O)NC(=O)[C@@H](CCCNC(=N)N)NC(=O)[C@H](CC(C)C)NC(=O)[C@@H](Cc2ccccc2)N(C)C(=O)CNC(=O)[C@H](CCCCN)NC(=O)[C@@H](CCCNC(=N)N)NC(=O)[C@@H](NC(=O)C[C@H](O)CC(C)C)[C@@H](C)OC(=O)[C@H]([C@@H](C)O)NC1=O [Peptide A3] ({Hexanoyl(3R-OH,5-Me)}-T[dR]KG[dNMeF]L[dR]E[dV][dW]IT; ester 1-C) |  | 103 ± 85 | 47.4 | 201 | 60.9 | 1439.45 a.u. and 1379.53 a.u. | 
CC[C@H](C)[C@@H]1NC(=O)[C@@H](Cc2c[nH]c3ccccc23)NC(=O)[C@@H](CCCN)NC(=O)[C@H](CCC(=O)O)NC(=O)[C@@H](CCCNC(=N)N)NC(=O)[C@H](CC(C)C)NC(=O)[C@@H](Cc2ccccc2)N(C)C(=O)CNC(=O)[C@H](Cc2ccc(O)cc2)NC(=O)[C@@H](CCCNC(=N)N)NC(=O)[C@@H](NC(=O)C[C@H](O)CC(C)C)[C@@H](C)OC(=O)[C@H]([C@@H](C)O)NC1=O [Peptide A7] ({Hexanoyl(3R-OH,5-Me)}-T[dR]YG[dNMeF]L[dR]E[dOrn][dW]IT; ester 1-C) |  | 441 ± 136 | 334 | 595 | 395 |  | 1035.66 a.u. and 1123.94 a.u.
CC[C@H](C)[C@@H]1NC(=O)[C@@H](Cc2c[nH]c3ccccc23)NC(=O)[C@@H](CCCN)NC(=O)[C@H](CCC(=O)O)NC(=O)[C@@H](CCCNC(=N)N)NC(=O)[C@H](CC(C)C)NC(=O)[C@@H](Cc2ccccc2)N(C)C(=O)CNC(=O)[C@H](CC(N)=O)NC(=O)[C@@H](CCCNC(=N)N)NC(=O)[C@@H](NC(=O)C[C@H](O)CC(C)C)[C@@H](C)OC(=O)[C@H]([C@@H](C)O)NC1=O [Peptide A14] ({Hexanoyl(3R-OH,5-Me)}-T[dR]NG[dNMeF]L[dR]E[dOrn][dW]IT; ester 1-C) | 1470.92 |  | 999 | > 1500 | 867 |  | 
CC(C)C[C@@H](O)CC(=O)N[C@@H]1C(=O)N[C@H](CCCNC(=N)N)C(=O)N[C@@H](C)C(=O)NCC(=O)N(C)[C@H](Cc2ccccc2)C(=O)N[C@@H](CC(C)C)C(=O)N[C@H](CCCNC(=N)N)C(=O)N[C@@H](CCC(=O)O)C(=O)N[C@H](Cc2ccc(O)cc2)C(=O)N[C@H](Cc2c[nH]c3ccccc23)C(=O)N[C@@H](Cc2ccc(O)cc2)C(=O)N[C@@H]([C@@H](C)O)C(=O)O[C@@H]1C [Peptide A15] ({Hexanoyl(3R-OH,5-Me)}-T[dR]AG[dNMeF]L[dR]E[dY][dW]YT; ester 1-C) | 1125.25 | 268 ± 102 | 231 | 383 | 189 |  | 
CC[C@H](C)[C@@H]1NC(=O)[C@@H](Cc2c[nH]c3ccccc23)NC(=O)[C@@H](CCCN)NC(=O)[C@H](CCC(=O)O)NC(=O)[C@@H](CCCNC(=N)N)NC(=O)[C@H](CC(C)C)NC(=O)[C@@H](Cc2ccccc2)N(C)C(=O)CNC(=O)[C@H](CC(=O)O)NC(=O)[C@@H](CCCNC(=N)N)NC(=O)[C@@H](NC(=O)C[C@H](O)CC(C)C)[C@@H](C)OC(=O)[C@H]([C@@H](C)O)NC1=O [Peptide A16] ({Hexanoyl(3R-OH,5-Me)}-T[dR]DG[dNMeF]L[dR]E[dOrn][dW]IT; ester 1-C) | 1414.45 | 832 ± 243 | 892 | 1040 | 565 |  | 

Reference: PMC6611794, “Development of a high-throughput strategy for discovery of potent analogues of antibiotic lysocin E” (Nature Communications, 2019)
